This is an account of results in ChEMBL document CHEMBL1135223, “Peptidomimetics of efflux pump inhibitors potentiate the activity of levofloxacin in Pseudomonas aeruginosa” (2002).

The structures appear in SMILES notation.

The term MIC denotes the smallest concentration in the dilution series that meets the test's criterion for growth inhibition. Read a low MIC as a more susceptible organism.

The subject of assay [1] is Pseudomonas aeruginosa. The assay is described as follows: Tested for the minimum inhibitory concentration (MIC) against growth of PAM 1032, a strain of Pseudomonas aeruginosa. Format: functional.
Assay [2] deals with Pseudomonas aeruginosa. The assay is described as follows: Minimum concentration required to reduce (potentiate) the MIC of levofloxacin of Pseudomonas aeruginosa by 8-folds. Format: functional.

In the assay with Pseudomonas aeruginosa [1], `NCCC[C@@H](N)C(=O)N[C@H](CCc1ccccc1)C(O)c1nc2ccccc2s1.O=C(O)C(F)(F)F.O=C(O)C(F)(F)F` (some centres undefined) displayed an MIC of 512 µg/mL. The MPC8 in the assay with Pseudomonas aeruginosa [2] stood at 20 µg/mL.
The matching figures for `Cc1ccc(CCN(CCC(=O)Nc2cnc3ccccc3c2)C(=O)[C@H](N)CCCN)cc1.O=C(O)C(F)(F)F.O=C(O)C(F)(F)F`: 256 µg/mL and 5 µg/mL.
Molecule `NCCC[C@@H](N)C(=O)N[C@H](CCc1ccccc1)c1nc(C(=O)Nc2cnc3ccccc3c2)co1.O=C(O)C(F)(F)F.O=C(O)C(F)(F)F` displayed an MIC with Pseudomonas aeruginosa [1] of 128 µg/mL. Also, in the assay with Pseudomonas aeruginosa [2], the MPC8 is 5 µg/mL.
`Cc1cc2nc(C(O)[C@@H](CCc3ccccc3)NC(=O)[C@H](N)CCCN)oc2cc1C.O=C(O)C(F)(F)F.O=C(O)C(F)(F)F` (some centres undefined) yielded an MIC against Pseudomonas aeruginosa [1] of 128 µg/mL. In addition, the MPC8 in the assay on Pseudomonas aeruginosa [2] worked out at 2.5 µg/mL.
`NCCC[C@@H](N)C(=O)N[C@H](CCc1ccccc1)COc1ccc(Cl)cc1.O=C(O)C(F)(F)F.O=C(O)C(F)(F)F`: in the assay with Pseudomonas aeruginosa [1], the MIC turned out to be 128 µg/mL. Also, the MPC8 in the assay with Pseudomonas aeruginosa [2] was determined as 5 µg/mL.
The matching figures for `NCCC[C@@H](N)C(=O)N[C@H](CCc1ccccc1)C(=O)Nc1cnc2ccccc2c1`: more than 512 µg/mL and 10 µg/mL.
The corresponding values for `NCCC[C@@H](N)C(O)CN[C@H](CCc1ccccc1)c1nc(C(=O)Nc2cnc3ccccc3c2)co1.O=C(O)C(F)(F)F.O=C(O)C(F)(F)F` (some centres undefined) are 64 µg/mL and 5 µg/mL.
As to `NCCC[C@@H](N)C(=O)N[C@H](CCc1ccccc1)C(O)c1nc2ccccc2o1.O=C(O)C(F)(F)F.O=C(O)C(F)(F)F` (some centres undefined), in the assay on Pseudomonas aeruginosa [1], the MIC is more than 512 µg/mL. Moreover, the MPC8 with Pseudomonas aeruginosa [2] stood at 10 µg/mL.
On to `CC(C)CCN(CCC(=O)Nc1cnc2ccccc2c1)C(=O)[C@H](N)CCCN.O=C(O)C(F)(F)F.O=C(O)C(F)(F)F`, for which the MIC in the assay with Pseudomonas aeruginosa [1] is more than 512 µg/mL. The MPC8 in the assay on Pseudomonas aeruginosa [2] amounted to 10 µg/mL.
The matching figures for `NCCC[C@@H](N)C(=O)N[C@H](CCc1ccccc1)CSc1ccc(Cl)cc1.O=C(O)C(F)(F)F.O=C(O)C(F)(F)F`: 64 µg/mL and 1.25 µg/mL.
The corresponding values for `NCCC[C@@H](N)C(O)CN[C@H](CCc1ccccc1)C(=O)Nc1cnc2ccccc2c1.O=C(O)C(F)(F)F.O=C(O)C(F)(F)F` (some centres undefined) are 128 µg/mL and 2.5 µg/mL.
In the case of `Cc1cc2nc(C(O)[C@@H](CCc3ccccc3)NCC(O)[C@H](N)CCCN)oc2cc1C.O=C(O)C(F)(F)F.O=C(O)C(F)(F)F` (some centres undefined), the MIC in the assay with Pseudomonas aeruginosa [1] was 128 µg/mL. Also, the MPC8 in the assay with Pseudomonas aeruginosa [2] came to 1.25 µg/mL.
The corresponding values for `NCCC[C@@H](N)C(=O)N(CCC(=O)Nc1cnc2ccccc2c1)CCc1ccccc1.O=C(O)C(F)(F)F.O=C(O)C(F)(F)F` are more than 512 µg/mL and 10 µg/mL.
The corresponding values for `NCCC[C@@H](N)C(=O)N[C@H](CCc1ccccc1)C(O)c1nc2cc(Cl)ccc2o1.O=C(O)C(F)(F)F.O=C(O)C(F)(F)F` (some centres undefined) are 256 µg/mL and 5 µg/mL.
The corresponding values for `NCCC[C@@H](N)C(=O)N[C@H](CCc1ccccc1)C(O)c1nc2ccccc2[nH]1.O=C(O)C(F)(F)F.O=C(O)C(F)(F)F` (some centres undefined) are more than 512 µg/mL and 20 µg/mL.
On to `NCCC[C@@H](N)C(=O)N[C@H](CCc1ccccc1)c1nc(C(=O)Nc2ccc3ccccc3c2)co1.O=C(O)C(F)(F)F.O=C(O)C(F)(F)F`, for which the MIC in the assay with Pseudomonas aeruginosa [1] was 16 µg/mL. Also, in the assay on Pseudomonas aeruginosa [2], the MPC8 worked out at 2.5 µg/mL.
In the case of `COc1ccc(CCN(CCC(=O)Nc2cnc3ccccc3c2)C(=O)[C@H](N)CCCN)cc1.O=C(O)C(F)(F)F.O=C(O)C(F)(F)F`, the MIC in the assay on Pseudomonas aeruginosa [1] was 512 µg/mL. Further, the MPC8 with Pseudomonas aeruginosa [2] was 10 µg/mL.
